Assays:
Format in all cases: biochemical
Human plasma thrombin = target: T1, Human plasma thrombin (Homo sapiens, UniProt P00734); assay: Ki determination, human plasma thrombin (H-D-Phe-Pip-Arg-pNA); details: 50 mM Tris-HCl, pH 8.3, 100 mM NaCl, 1% BSA; read-out: Experimentally Determined Ki, Thrombin
T1 construct: from tissue; host or cells: human plasma
Procedure: (§1) Protease inhibition was assayed according to published procedures with minor modifications using various proteases and specific chromogenic peptide p-nitroanilide substrates. Assays were performed in Costar ultra-low cluster 96-well microtiter plate (Costar Corning Corp., Cambridge Mass.). Each protease was incubated with various concentrations of the test compound for 15 min. at 37° C. or as otherwise indicated, in specific assay buffer, and the residual activity was then measured by addition of the substrate. p-Nitroaniline produced by the proteolysis was determined by measuring the change in absorbance at 405 nm on a SpectraMAX 340 plate reader (Molecular devices, Sunnyvale, Calif.).
(§2) 1. The inhibition constant, Ki is calculated from individual data points using the equation for a tight-binding inhibitor (See Beith, "Proteinase Inhibitors-Proceedings of 2nd Int. Res. Conference", Fritz, et al. eds, New York, p.4463-4469 (1974)):
(§3) vi /vo [((Ki '+[I]+[E]o)^2 -4 [I]o
(§4) [E]o)^1/2 (Ki '+[I]o -[E]o)]/2[E]o
(§5) where Ki ' is apparent inhibition constant; vi and vo are the inhibited and uninhibited rates, respectively; [I]o and [E]o are the total concentrations of inhibitor and enzyme, respectively.
(§6) [note: [E]o is determined by active site titration of enzyme]
(§7) The Ki values are obtained by correcting Ki ' values for the effect of substrate concentration according to: [formula]
(§8) 2. Other inhibition data (Ki >>[E]o), the Ki is calculated from using the equations for a competitive inhibitor: [formula]
Human plasma thrombin activity was determined by using H-D-Phe-Pip-Arg-pNA in 50 mM Tris-HCl, pH 8.3, 100 mM NaCl, 1% BSA (See Lottenberg, et al. Meth. Enzymol. 80, 341-361 (1981)).
(§9) The inhibition constant (Ki) of the test compounds against each proteolytic enzyme was determined according to Zitnik et al., Biochem. Biophys. Res. Commun. 232, 687-697 (1997)).

r-tissue kallikrein = r-tissue kallikrein (Homo sapiens, UniProt P06870); assay: Ki determination, r-tissue kallikrein (DL-Val-Leu-Arg-pNA); details: 50 mM Tris-HCl, pH 7.8, 200 mM NaCl, 0.05% BSA; read-out: Experimentally Determined Ki, Tissue Kallikrein
Chain of r-tissue kallikrein (P06870 25-262): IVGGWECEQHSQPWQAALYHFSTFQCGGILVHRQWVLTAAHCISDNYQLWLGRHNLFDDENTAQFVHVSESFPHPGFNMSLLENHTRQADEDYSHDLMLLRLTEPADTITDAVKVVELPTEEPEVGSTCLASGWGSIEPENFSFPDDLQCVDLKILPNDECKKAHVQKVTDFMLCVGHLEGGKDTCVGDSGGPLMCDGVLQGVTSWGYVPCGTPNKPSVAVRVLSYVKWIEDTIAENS
Procedure: as §1, §2, §3, §4, §5, §6, §7, §8
(§10) I. Human Plasma and r-Tissue Kallikrein
(§11) Human plasma and r-tissue kallikrein activity were determined in 50 mM Tris-HCl, pH 7.8, 200 mM NaCl, 0.05% BSA by using H-D-Prolyl-Phe-Arg-pNA and DL-Val-Leu-Arg-pNA, respectively (See Lottenberg, et al., Meth. Enzymol. 80, 341-361 (1981)).
as §9

[1] = target: T2, Bovine pancreatic Trypsin (Bos taurus, UniProt P00760); assay: Ki determination, bovine pancreatic trypsin (N-a-Benzoyl-L-Arg-pNA); details: 50 mM Tris-HCl, pH 8.2, 20 mM CaCl2; read-out: Experimentally Determined Ki, Trypsin
T2 construct: from tissue; host or cells: bovine pancreas
T2 sequence (P00760 24-246): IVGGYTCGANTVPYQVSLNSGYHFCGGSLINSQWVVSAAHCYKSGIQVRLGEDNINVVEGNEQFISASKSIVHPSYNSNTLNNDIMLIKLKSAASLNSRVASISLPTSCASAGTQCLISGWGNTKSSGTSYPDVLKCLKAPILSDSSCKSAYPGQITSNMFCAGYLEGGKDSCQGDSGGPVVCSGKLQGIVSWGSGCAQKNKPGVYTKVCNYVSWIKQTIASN
Procedure: as §1, §2, §3, §4, §5, §6, §7, §8
Bovine pancreatic Trypsin (TPCK-treated) activity was determined by using N-a-Benzoyl-L-Arg-pNA in 50 mM Tris-HCl, pH 8.2, 20 mM CaCl2 (See Somorin, et al., J. Biochem. 85, 157-162 (1979)).
as §9

[2] = target: T3, Human Neutrophil Cathepsin G (Homo sapiens, UniProt P08311); assay: Ki determination, human neutrophil cathepsin G (N-Suc-Ala-Ala-Pro-Phe-pNA); details: 625 mM Tris-HCl, pH 7.5, 2.5 mM MgCl2, 0.125% Brij 35; read-out: Experimentally Determined Ki, Cathepsin G
T3 construct: from tissue; host or cells: human neutrophils
T3 sequence (P08311 21-255): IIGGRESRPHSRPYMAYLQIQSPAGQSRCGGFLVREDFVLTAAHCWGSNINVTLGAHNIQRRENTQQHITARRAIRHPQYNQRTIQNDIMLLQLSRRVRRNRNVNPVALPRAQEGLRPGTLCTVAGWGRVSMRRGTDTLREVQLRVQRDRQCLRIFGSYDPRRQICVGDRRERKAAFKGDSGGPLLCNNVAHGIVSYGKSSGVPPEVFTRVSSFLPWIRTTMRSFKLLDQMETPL
Procedure: as §1, §2, §3, §4, §5, §6, §7, §8
Human Neutrophil Cathepsin G activity was determined by using N-Suc-Ala-Ala-Pro-Phe-pNA in 625 mM Tris-HCl, pH 7.5, 2.5 mM MgCl2, 0.125% Brij 35 (See Groutas et al., Arch. Biochem. Biophys. 294, 144-146 (1992)).
as §9

[3] = target: T4, Bovine Pancreatic Chymotrypsin (Bos taurus, UniProt P00766); assay: Ki determination, bovine pancreatic chymotrypsin (N-Suc-Ala-Ala-Pro-Phe-pNA); details: 100 mM Tris-HCl, pH 7.8, 10 mM CaCl2; read-out: Experimentally Determined Ki, Chymotrypsin
T4 construct: from tissue; host or cells: bovine pancreas
Procedure: as §1, §2, §3, §4, §5, §6, §7, §8
Bovine Pancreatic Chymotrypsin activity was determined by using N-Suc-Ala-Ala-Pro-Phe-pNA in 100 mM Tris-HCl, pH 7.8, 10 mM CaCl2 (See Delmar, et al., J. Biochem. 85, 157-162 (1979)).
as §9

Human plasma kallikrein = target: T5, Human plasma kallikrein (Homo sapiens, UniProt P03952); assay: Ki determination, human plasma kallikrein (H-D-Prolyl-Phe-Arg-pNA); details: 50 mM Tris-HCl, pH 7.8, 200 mM NaCl, 0.05% BSA; read-out: Experimentally Determined Ki, Plasma Kallikrein
T5 construct: from tissue; host or cells: human plasma
T5 sequence (P03952 391-638 limits assumed): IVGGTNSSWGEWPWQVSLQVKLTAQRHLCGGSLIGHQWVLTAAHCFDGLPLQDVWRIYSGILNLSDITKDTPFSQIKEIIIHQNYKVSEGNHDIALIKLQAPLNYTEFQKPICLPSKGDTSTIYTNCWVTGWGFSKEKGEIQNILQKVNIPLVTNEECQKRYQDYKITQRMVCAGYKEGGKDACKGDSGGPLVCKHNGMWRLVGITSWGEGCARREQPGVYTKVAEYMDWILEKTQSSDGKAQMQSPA
T5 sequence (P03952 20-390 partner limits assumed): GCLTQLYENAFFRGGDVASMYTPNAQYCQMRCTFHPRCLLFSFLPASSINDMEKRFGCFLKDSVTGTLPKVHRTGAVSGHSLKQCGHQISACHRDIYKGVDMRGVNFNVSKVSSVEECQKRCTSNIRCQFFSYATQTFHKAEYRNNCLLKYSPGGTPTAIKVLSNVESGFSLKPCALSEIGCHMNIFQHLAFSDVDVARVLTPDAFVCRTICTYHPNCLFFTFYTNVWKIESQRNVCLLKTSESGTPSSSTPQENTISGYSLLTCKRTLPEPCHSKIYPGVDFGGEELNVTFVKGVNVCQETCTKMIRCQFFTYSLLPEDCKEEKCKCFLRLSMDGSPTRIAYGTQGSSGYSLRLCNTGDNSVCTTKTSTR
Procedure: as §1, §2, §3, §4, §5, §6, §7, §8, §10, §11, §9

Human plasma factor Xa = target: T6, Human plasma factor Xa (Homo sapiens, UniProt P00742); assay: Ki determination, human plasma factor Xa (N-Benzoyl-Ile-Glu-Gly-Arg-pNA); details: 50 mM Tris-HCl, pH 7.8, 200 mM NaCl, 0.05% BSA; read-out: Experimentally Determined Ki, Factor Xa
T6 construct: from tissue; host or cells: human plasma
T6 sequence (P00742 235-488 limits assumed): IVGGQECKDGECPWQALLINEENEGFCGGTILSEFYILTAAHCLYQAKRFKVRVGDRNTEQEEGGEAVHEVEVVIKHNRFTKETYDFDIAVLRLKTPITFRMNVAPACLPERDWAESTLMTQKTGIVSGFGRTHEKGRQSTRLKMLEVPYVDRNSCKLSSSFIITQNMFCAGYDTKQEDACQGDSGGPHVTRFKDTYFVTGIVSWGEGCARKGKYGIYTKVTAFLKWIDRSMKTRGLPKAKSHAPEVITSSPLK
T6 sequence (P00742 41-179 partner limits assumed): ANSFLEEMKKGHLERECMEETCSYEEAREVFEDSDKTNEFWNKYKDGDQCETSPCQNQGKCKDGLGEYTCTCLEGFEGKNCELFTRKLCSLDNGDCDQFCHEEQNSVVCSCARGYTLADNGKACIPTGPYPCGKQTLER
Procedure: as §1, §2, §3, §4, §5, §6, §7, §8
Human plasma factor Xa activity was determined by using N-Benzoyl-Ile-Glu-Gly-Arg-pNA in 50 mM Tris-HCl, pH 7.8, 200 mM NaCl, 0.05% BSA (See Lottenberg, et al. Meth. Enzymol. 80, 341-361 (1981)).
as §9

Human plasma plasmin = target: T7, Human plasma plasmin (Homo sapiens, UniProt P00747); assay: Ki determination, human plasma plasmin (Tosyl-Gly-Pro-Lys-pNA); details: 100 mM Tris-HCl, pH 7.4, 100 mM NaCl, 0.05% Triton X-100; read-out: Experimentally Determined Ki, Plasmin
T7 construct: from tissue; host or cells: human plasma
T7 sequence (P00747 581-810 limits assumed): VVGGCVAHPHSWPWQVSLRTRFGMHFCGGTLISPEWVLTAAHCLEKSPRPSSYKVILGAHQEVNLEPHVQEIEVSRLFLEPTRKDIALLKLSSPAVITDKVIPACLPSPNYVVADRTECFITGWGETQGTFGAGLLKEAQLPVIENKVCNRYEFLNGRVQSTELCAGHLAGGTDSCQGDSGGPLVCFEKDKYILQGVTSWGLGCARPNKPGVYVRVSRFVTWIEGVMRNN
T7 sequence (P00747 97-580 partner limits assumed): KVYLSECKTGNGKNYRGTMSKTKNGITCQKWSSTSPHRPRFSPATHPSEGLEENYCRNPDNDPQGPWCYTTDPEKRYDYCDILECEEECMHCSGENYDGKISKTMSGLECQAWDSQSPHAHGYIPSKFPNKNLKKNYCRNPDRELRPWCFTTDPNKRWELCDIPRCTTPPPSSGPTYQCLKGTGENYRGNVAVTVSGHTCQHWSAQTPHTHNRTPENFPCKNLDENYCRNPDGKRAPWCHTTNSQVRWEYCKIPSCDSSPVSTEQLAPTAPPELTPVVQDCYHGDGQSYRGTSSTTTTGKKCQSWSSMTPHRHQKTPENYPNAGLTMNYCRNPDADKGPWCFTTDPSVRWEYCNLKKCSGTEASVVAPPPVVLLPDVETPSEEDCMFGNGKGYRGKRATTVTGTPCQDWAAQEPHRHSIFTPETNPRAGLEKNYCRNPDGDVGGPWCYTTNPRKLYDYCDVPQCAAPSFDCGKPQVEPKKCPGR
Procedure: as §1, §2, §3, §4, §5, §6, §7, §8
Human plasma plasmin activity was determined by using Tosyl-Gly-Pro-Lys-pNAin 100 mM Tris-HCl, pH 7.4, 100 mM NaCl, 0.05% Triton X-100 (See Lottenberg, et al., Meth. Enzymol. 80, 341-361 (1981)).
as §9

| Structure (SMILES) | Ki (Human plasma thrombin) [µM] | Ki (r-tissue kallikrein) [µM] | Ki [1] [µM] | Ki [2] [µM] | Ki [3] [µM] | Ki (Human plasma kallikrein) [µM] | Ki (Human plasma factor Xa) [µM] | Ki (Human plasma plasmin) [µM] |
| --- | --- | --- | --- | --- | --- | --- | --- | --- |
| N=C(N)c1cccc(S(=O)(=O)NCc2ccc(OCCCCCOc3ccc(CNS(=O)(=O)c4cccc(C(=N)N)c4)cc3)cc2)c1 [Example 41, 1,5-Bis-{4-[(3-carbamimidoyl-benzenesulfonylamino)-methyl]-phenoxy}-pentane] | > 100 | > 100 | 2.5 | > 100 | > 100 | 18 | 6.4 | 0.93 |
| N=C(N)c1cccc(S(=O)(=O)NCc2ccc(OCCCCOc3ccc(CNS(=O)(=O)c4cccc(C(=N)N)c4)cc3)cc2)c1 [Example 47, 1,4-Bis-{4-[(3-carbamimidoyl-benzenesulfonylamino)-methyl]-phenoxy}-butane] | > 100 | > 100 | 1.8 | > 100 | > 100 | 2.5 | 2.9 | 0.06 |
| N=C(N)c1ccc(S(=O)(=O)NCc2ccc(OCCCOc3ccc(CNS(=O)(=O)c4ccc(C(=N)N)cc4)cc3)cc2)cc1 [Example 50, 1,3-Bis-{4-[(4-carbamimidoyl-benzenesulfonylamino)-methyl]-phenoxy}-propane] | > 100 | > 100 | – | > 100 | 6.3 | > 100 | > 100 | 6.1 |
| N=C(N)c1ccc(C(=O)NCc2ccc(OCCCCCOc3ccc(CNC(=O)c4ccc(C(=N)N)cc4)cc3)cc2)cc1 [Example 54, 1,5-Bis-{4-[(4-carbamimidoyl-benzenecarbonylamino)-methyl]-phenoxy}-pentane] | > 100 | > 100 | 0.91 | > 100 | > 100 | 16 | > 100 | 4.1 |
| N=C(N)c1ccc(C(=O)NCc2ccc(OCCCCCCOc3ccc(CNC(=O)c4ccc(C(=N)N)cc4)cc3)cc2)cc1 [Example 56, 1,6-Bis-{4-[(4-carbamimidoyl-benzenecarbonylamino)-methyl]-phenoxy}-hexane] | > 100 | > 100 | 1.3 | > 100 | > 100 | – | – | 1.6 |
| N=C(N)c1cccc(C(=O)NCc2ccc(OCCCCCCOc3ccc(CNC(=O)c4cccc(C(=N)N)c4)cc3)cc2)c1 [Example 57, 1,6-Bis-{4-[(3-carbamimidoyl-benzenecarbonylamino)-methyl]-phenoxy}-hexane] | > 100 | > 100 | 1.7 | > 100 | > 100 | – | – | 10.7 |
| N=C(N)c1cccc(C(=O)NCc2ccc(OCCCOc3ccc(CNC(=O)c4cccc(C(=N)N)c4)cc3)cc2)c1 [Example 63, 1,3-Bis-{4-[(3-carbamimidoyl-benzoylamino)-methyl]-phenoxy}-propane] | > 100 | > 100 | 2.4 | > 100 | > 100 | – | – | 28 |
| N=C(N)c1ccc(C(=O)NCc2ccc(COCc3ccc(CNC(=O)c4ccc(C(=N)N)cc4)cc3)cc2)cc1 [Example 66, 1,3-Bis-{4-[(4-carbamimidoyl-benzenecarbonylamino)-methyl]-phenyl}-2-oxapropane] | > 100 | > 100 | 0.51 | – | > 100 | 0.7 | 25.7 | 10.1 |

Further lines, results first:

| Ki (Human plasma thrombin) [µM] | Ki (r-tissue kallikrein) [µM] | Ki [1] [µM] | Ki [2] [µM] | Ki [3] [µM] | Ki (Human plasma kallikrein) [µM] | Ki (Human plasma factor Xa) [µM] | Ki (Human plasma plasmin) [µM] | Structure (SMILES) |
| --- | --- | --- | --- | --- | --- | --- | --- | --- |
| > 100 | > 100 | 3.6 | > 100 | 20 | > 100 | 15.6 | 2.6 | N=C(N)c1cccc(S(=O)(=O)NCc2ccc(OCCCCCCOc3ccc(CNS(=O)(=O)c4cccc(C(=N)N)c4)cc3)cc2)c1 [Example 43, 1,6-Bis-{4-[(3-carbamimidoyl-benzenesulfonylamino)-methyl]-phenoxy}-hexane] |
| > 100 | > 100 | 12 | > 100 | > 100 | 34 | 7.6 | 10 | N=C(N)c1cccc(S(=O)(=O)NCc2ccc(OCCCCCCCOc3ccc(CNS(=O)(=O)c4cccc(C(=N)N)c4)cc3)cc2)c1 [Example 45, 1,7-Bis-{4-[(3-carbamimidoyl-benzenesulfonylamino)-methyl]-phenoxy}-heptane] |
| > 100 | > 100 | 2.8 | > 100 | > 100 | 6 | 7.4 | 0.74 | N=C(N)c1cccc(S(=O)(=O)NCc2ccc(OCCCOc3ccc(CNS(=O)(=O)c4cccc(C(=N)N)c4)cc3)cc2)c1 [Example 49, 3,1-Bis-{4-[(3-carbamimidoyl-benzenesulfonylamino)-methyl]-phenoxy}-propane] |
| > 100 | > 100 | 5.2 | > 100 | > 100 | 12 | 6.1 | 2 | N=C(N)c1cccc(S(=O)(=O)NCc2ccc(OCCOc3ccc(CNS(=O)(=O)c4cccc(C(=N)N)c4)cc3)cc2)c1 [Example 51, 1,2-Bis-{4-[(3-carbamimidoyl-benzenesulfonylamino)-methyl]-phenoxy}-ethane] |
| > 100 | > 100 | 3 | > 100 | > 100 | 8.8 | 16 | 10 | N=C(N)c1cccc(S(=O)(=O)NCc2ccc(COCc3ccc(CNS(=O)(=O)c4cccc(C(=N)N)c4)cc3)cc2)c1 [Example 53, 1,3-Bis-{4-[(3-carbamimidoyl-benzenesulfonylamino)-methyl]-phenyl}-2-oxapropane] |

Source: patent US6221914A, “Sulfonamide bridging compounds that inhibit tryptase activity” (Array Biopharma Inc., priority 1998, dated 2001)
